These results are taken from patent US20250222116A1, “PARP-1 DEGRADATION AGENT AND USE THEREOF” (XIZANG HAISCO PHARMACEUTICAL CO., LTD., priority 2021, published 2025).

The data set in a line: Pharmacokinetic test in rats. It is filed as in vivo, SD rats. Here is the method: 7.1 Experimental animals: male SD rats, about 220 g, 6-8 weeks old, 6 rats/compound, purchased from Chengdu Ddossy Experimental Animals Co., Ltd.
7.2 Experimental design: on the day of the experiment, 12 SD rats were randomly grouped according to their body weights. The animals were fasted with water available for 12 to 14 h one day before the administration, and were fed 4 h after the administration.
Before and after the administration, 0.15 mL of blood was taken from the orbit of the animals under isoflurane anesthesia and placed in an EDTAK2 centrifuge tube. The blood was centrifuged at 5000 rpm and 4° C. for 10 min to collect plasma. The blood collection time points for the intravenous administration group and intragastric administration group were: 0, 5 min, 15 min, 30 min, 1 h, 2 h, 4 h, 6 h, 8 h, and 24 h. Before analysis and detection, all samples were stored at −80° C. The samples were analyzed quantitatively by LC-MS/MS.

[1] abbreviates: male, SD, rat, iv, i.v. 2.5 mg/kg, plasma.

For orientation: AUC(0-t) means the area under the concentration-time curve up to a stated or last time point. As a reminder, the clearance is the volume of plasma or blood freed of the substance per unit of time. The low end stands for inefficient removal, the high end for efficient removal. On to `CCc1cc2ncc(CN3CCN(c4ccc(C(=O)NC5CCN(c6ccc7c(c6)C(=O)N(C6CCC(=O)NC6=O)C7=O)CC5)nc4)CC3)cc2[nH]c1=O` (stereo not drawn) [Compound 10, N-(1-(2-(2,6-dioxopiperidin-3-yl)-1,3-dioxoisoindolin-5-yl)piperidin-4-yl)-5-(4-((7-ethyl-6-oxo-5,6-dihydro-1,5-naphthyridin-3-yl)methyl)piperazin-1-yl)picolinamide], for which the pharmacokinetic characteristics entry was “good pharmacokinetic characteristics”. The F (i.g. 10 mg/kg) was 34.3%. Under setting [1], the AUC(0-t) came out at 31.2 µg·h/mL and the clearance was found to be 0.0852 L/h/kg. For the same compound, for the setting “male, SD, rat, iv, i.v. 2.5 mg/kg, plasma, read-out: Vdss”, the Vd stood at 0.405 L/kg. Moreover, for the setting “male, SD, rat, po, i.g. 10 mg/kg, plasma”, the AUC(0-t) was found to be 42.9 µg·h/mL.
